# Laboratory results as given in article PMC11110727, “Exploiting thiol-functionalized benzosiloxaboroles for achieving diverse substitution patterns – synthesis, characterization and biological evaluation of promising antibacterial agents” (RSC Medicinal Chemistry, 2024).
# Read-outs that look alike come from different tables or passages of the source.
# Tests used:
# E. cloacae DSM 6234 = experiment: Antibacterial activity: MIC/MBC, MIC with PAβN, disc-diffusion; type: cell-based, Enterobacter cloacae; settings: for MIC: Enterobacter cloacae, DSM6234
# In short: (§1)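 Read-outs are disc-diffusion zones, broth-microdilution MICs and bactericidal concentrations (MBC), following EUCAST and CLSI guidance. The efflux contribution was probed by rerunning MICs with 20 μg mL^−1 PAβN in MgSO4-supplemented (1 mM) Mueller–Hinton II broth, a ≥4-fold decrease being significant.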
# B. cepacia ATCC 25416 = experiment: Antibacterial activity: MIC/MBC, disc-diffusion; type: cell-based, Burkholderia cepacia; settings: Burkholderia cepacia, ATCC25416
# In short: as §1
# P. mirabilis ATCC 12453 = experiment: Antibacterial activity: MIC/MBC, MIC with PAβN, disc-diffusion; type: cell-based, Proteus mirabilis; settings: Proteus mirabilis, ATCC12453
# In short: as §1
# E. coli ATCC 25922 = experiment: as above; type: cell-based, Escherichia coli; settings: for MIC: Escherichia coli, ATCC25922; for -fold reduction of MIC in the presence of PAβN: PAβN 20 μg mL^−1, MHB + 1 mM MgSO4
# In short: as §1
# C. krusei ATCC 6258 = experiment: Antifungal activity: MIC/MFC, disc-diffusion; type: cell-based; settings: for diameter of inhibition zone: C. krusei ATCC 6258, (-) = zone not observed, paper discs 9 mm; for MIC: Pichia kudriavzevii, ATCC6258
# In short: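 Yeast subcultured on Sabouraud dextrose agar 24–48 h at 30 °C before testing. Disc-diffusion and MIC per EUCAST and CLSI recommendations; MFC per CLSI. Compounds dissolved in DMSO.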
# S. marcescens ATCC 13880 = experiment: Antibacterial activity: MIC/MBC, MIC with PAβN, disc-diffusion; type: cell-based, Serratia marcescens; settings: Serratia marcescens, ATCC13880
# In short: as §1
# [1] = tested on: S. maltophilia ATCC 12714; experiment: as above; type: cell-based, Stenotrophomonas maltophilia; settings: Stenotrophomonas maltophilia, ATCC12714
# In short: as §1
# [2] = tested on: S. maltophilia ATCC 13637; experiment: as above; type: cell-based, Stenotrophomonas maltophilia; settings: Stenotrophomonas maltophilia, ATCC13637
# In short: as §1
# [3] = tested on: S. aureus ATCC 43300 MRSA; experiment: Antibacterial activity: MIC/MBC determination and disc-diffusion; type: cell-based; settings: Staphylococcus aureus
# In short: (§2)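 EUCAST/CLSI MIC plus disc-diffusion; MBC, MFC by CLSI. Pre-culture: two passages, 30 °C, 24–48 h (TSA, Sabouraud). Controls fluconazole (fungi) and linezolid (Gram-positives); DMSO vehicle.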
# E. faecium ATCC 6057 = experiment: as above; type: cell-based; settings: Enterococcus faecium, ATCC6057
# In short: as §2
# [4] = E. cloacae DSM 6234, read-out: MIC
# [5] = B. cepacia ATCC 25416, read-out: MIC
# [6] = P. mirabilis ATCC 12453, read-out: MIC
# [7] = E. coli ATCC 25922, read-out: MIC
# [8] = S. marcescens ATCC 13880, read-out: MIC
# [9] = S. maltophilia ATCC 12714, read-out: MIC
# [10] = S. maltophilia ATCC 13637, read-out: MIC
# [11] = S. aureus ATCC 43300 MRSA, read-out: MIC
# [12] = E. faecium ATCC 6057, read-out: MIC
# [13] = S. aureus ATCC 43300 MRSA, read-out: MBC (first MBC where Eagle effect)
SMILES,MIC (E. cloacae DSM 6234; [4]) [µg/mL],MIC (B. cepacia ATCC 25416; [5]) [µg/mL],MIC (P. mirabilis ATCC 12453; [6]) [µg/mL],MIC (E. coli ATCC 25922; [7]) [µg/mL],diameter of inhibition zone (C. krusei ATCC 6258) [mm],MIC (C. krusei ATCC 6258; read-out: MIC) [µg/mL],MIC (S. marcescens ATCC 13880; [8]) [µg/mL],"MIC [1, 9] [µg/mL]","MIC [2, 10] [µg/mL]","MIC [3, 11] [µg/mL]",MIC (E. faecium ATCC 6057; [12]) [µg/mL],"MBC [3, 13] [µg/mL]",further results
"C[Si]1(C)OB(O)c2ccc(SC3CC(=O)N(c4ccc(F)cc4)C3=O)c(F)c21 (centres unmarked) [Compound 15, 3-((7-Fluoro-3-hydroxy-1,1-dimethyl-1,3-dihydrobenzo[c][1,2,5]oxasilaborol-6-yl)thio)-1-(4-fluorophenyl)pyrrolidine-2,5-dione]",> 200,> 200,> 200,> 200,29,25,> 200,> 200,> 200,25,25,,
"C[Si]1(C)OB(O)c2cc(F)c(SC3CC(=O)N(c4ccc(Br)c(C(F)(F)F)c4)C3=O)c(F)c21 (centres unmarked) [Compound 16, 1-(4-Bromo-3-(trifluoromethyl)phenyl)-3-((5,7-difluoro-3-hydroxy-1,1-dimethyl-1,3-dihydrobenzo[c][1,2,5]oxasilaborol-6-yl)thio)pyrrolidine-2,5-dione]",> 200,> 200,> 200,> 200,21,25,> 200,> 200,> 200,50,50,100,
"C[Si]1(C)OB(O)c2ccc(SC3CC(=O)N(c4ccc(Br)c(C(F)(F)F)c4)C3=O)c(F)c21 (centres unmarked) [Compound 17, 1-(4-Bromo-3-(trifluoromethyl)phenyl)-3-((7-fluoro-3-hydroxy-1,1-dimethyl-1,3-dihydrobenzo[c][1,2,5]oxasilaborol-6-yl)thio)pyrrolidine-2,5-dione]",> 200,> 200,> 200,> 200,18,100,> 200,> 200,> 200,25,25,100,
"C[Si]1(C)OB(O)c2cc(F)c(SCCC(=O)OCCCCCC[n+]3ccccc3)c(F)c21 [Compound 18, 1-(6-((3-((5,7-difluoro-3-hydroxy-1,1-dimethyl-1,3-dihydrobenzo[c][1,2,5]oxasilaborol-6-yl)thio)propanoyl)oxy)hexyl)pyridin-1-ium trifluoromethanesulfonate]",> 400,> 400,> 400,> 400,,> 400,> 400,> 400,> 400,50,100,200,
"C[Si]1(C)OB(O)c2ccc(SCCC(=O)OCCCCCC[n+]3ccccc3)c(F)c21 [Compound 19, 1-(6-((3-((7-Fluoro-3-hydroxy-1,1-dimethyl-1,3-dihydrobenzo[c][1,2,5]oxasilaborol-6-yl)thio)propanoyl)oxy)hexyl)pyridin-1-ium trifluoromethanesulfonate]",> 400,> 400,> 400,> 400,,> 400,> 400,> 400,> 400,25,100,100,
"C[Si]1(C)OB(O)c2cc(F)c(SCCS(=O)(=O)c3ccccc3)c(F)c21 [Compound 20, 5,7-Difluoro-1,1-dimethyl-6-((2-(phenylsulfonyl)ethyl)thio)benzo[c][1,2,5]oxasilaborol-3(1H)-ol]",> 400,> 400,> 400,> 400,,> 400,> 400,> 400,> 400,6.25,100,200,"-fold reduction of MIC in the presence of PAβN (E. cloacae DSM 6234; E. cloacae DSM 6234, PAβN 20 μg mL^−1, MHB + 1 mM MgSO4): 4 -fold; -fold reduction of MIC in the presence of PAβN (E. coli ATCC 25922; E. coli ATCC 25922): 32 -fold"
"C[Si]1(C)OB(O)c2ccc(SCCS(=O)(=O)c3ccccc3)c(F)c21 [Compound 21, 7-Fluoro-1,1-dimethyl-6-((2-(phenylsulfonyl)ethyl)thio)benzo[c][1,2,5]oxasilaborol-3(1H)-ol]",> 400,> 400,> 400,> 400,,> 400,> 400,> 400,> 400,12.5,200,400,"diameter of inhibition zone (E. coli ATCC 25922; E. coli ATCC 25922, (-) = zone not observed, paper discs 9 mm): 11 mm; -fold reduction of MIC in the presence of PAβN (E. coli ATCC 25922; E. coli ATCC 25922): 16 -fold"
"CC(=O)CSc1ccc2c(c1F)[Si](C)(C)OB2O [Compound 22, 1-((7-Fluoro-3-hydroxy-1,1-dimethyl-1,3-dihydrobenzo[c][1,2,5]oxasilaborol-6-yl)thio)propan-2-one]",> 400,> 400,> 400,> 400,12,200,> 400,> 400,> 400,6.25,25,200,
"C[Si]1(C)OB(O)c2ccc(SCC(=O)c3ccccc3)c(F)c21 [Compound 23, 2-((7-Fluoro-3-hydroxy-1,1-dimethyl-1,3-dihydrobenzo[c][1,2,5]oxasilaborol-6-yl)thio)-1-phenylethan-1-one]",> 400,> 400,> 400,> 400,12,200,> 400,> 400,> 400,3.12,50,25,"MBC ([3]; S. aureus ATCC 43300 MRSA, value after the slash, read-out: second MBC (Eagle effect)): 100 µg/mL"
"CCOP(=O)(OCC)Sc1c(F)cc2c(c1F)[Si](C)(C)OB2O [Compound 24, S-(5,7-Difluoro-3-hydroxy-1,1-dimethyl-1,3-dihydrobenzo[c][1,2,5]oxasilaborol-6-yl) O,O-diethyl phosphorothioate]",,,,,,,,,,,,,MIC (E. cloacae DSM 6234): > 400 µg/mL; MIC (B. cepacia ATCC 25416): > 400 µg/mL; MIC (P. mirabilis ATCC 12453): > 400 µg/mL; MIC (E. coli ATCC 25922): > 400 µg/mL; MIC (C. krusei ATCC 6258): > 400 µg/mL; MIC (S. marcescens ATCC 13880): > 400 µg/mL; MIC [1]: > 400 µg/mL; MIC [2]: > 400 µg/mL; MIC [3]: 12.5 µg/mL; MBC ([3]; read-out: MBC (first MBC where Eagle effect)): > 400 µg/mL; MIC (E. faecium ATCC 6057): 400 µg/mL
"C[Si]1(C)OB(O)c2ccc(SC(=O)c3ccc(C(F)(F)F)cc3)c(F)c21 [Compound 25, S-(7-Fluoro-3-hydroxy-1,1-dimethyl-1,3-dihydrobenzo[c][1,2,5]oxasilaborol-6-yl) 4-(trifluoromethyl)benzothioate]",> 50,> 50,> 50,> 50,,> 50,> 50,> 50,> 50,12.5,12.5,25,MBC (E. faecium ATCC 6057; E. faecium ATCC 6057): > 50 µg/mL
"C[Si]1(C)OB(O)c2cc(F)c(S(=O)(=O)Cl)c(F)c21 [Compound 26, 5,7-Difluoro-3-hydroxy-1,1-dimethyl-1,3-dihydrobenzo[c][1,2,5]oxasilaborole-6-sulfonyl chloride]",> 400,> 400,> 400,> 400,,> 400,> 400,> 400,> 400,200,100,,
"C[Si]1(C)OB(O)c2cc(F)c(S(N)(=O)=O)c(F)c21 [Compound 27, 5,7-Difluoro-3-hydroxy-1,1-dimethyl-1,3-dihydrobenzo[c][1,2,5]oxasilaborole-6-sulfonamide]",> 400,> 400,> 400,> 400,,> 400,> 400,> 400,> 400,> 400,400,,-fold reduction of MIC in the presence of PAβN (E. coli ATCC 25922; E. coli ATCC 25922): 2 -fold
